# Assay results: PMC5218480 (PLoS ONE, 2017)
# Test system: MV-4-11 cells
# Test: Gene expression microarray analysis (Affymetrix PrimeView) and GSEA
# Type: cell-based, human
# Parameters: RFU PODN (11730768_x_at) / Fold change /veh PODN (11730768_x_at) / RFU LINC00158 (11744669_a_at) / Fold change /veh LINC00158 (11744669_a_at) / RFU DUSP10 (11751237_a_at) / Fold change /veh DUSP10 (11751237_a_at) / RFU ID3 (11757404_x_at) / Fold change /veh ID3 (11757404_x_at) / RFU PLEKHG5 (11737974_s_at) / Fold change /veh PLEKHG5 (11737974_s_at) / RFU LRRC4B (11730491_at) / Fold change /veh LRRC4B (11730491_at) / RFU GIMAP4 (11747438_a_at) / Fold change /veh GIMAP4 (11747438_a_at) / RFU KRT8 (11758183_x_at) / Fold change /veh KRT8 (11758183_x_at) / RFU CNN1 (11734310_a_at) / Fold change /veh CNN1 (11734310_a_at) / RFU VPS37D (11726825_at) / Fold change /veh VPS37D (11726825_at) / RFU C10orf10 (11716522_x_at) / Fold change /veh C10orf10 (11716522_x_at) / RFU KIR2DL2 /// KIR2DL4 /// KIR2DL5A /// KIR2DL5B /// KIR2DS1 /// KIR2DS2 /// KIR2DS3 /// KIR2DS4 /// KIR3DL3 /// KIR3DL3 /// KIR3DS1 (11738374_at) / Fold change /veh KIR2DL2 /// KIR2DL4 /// KIR2DL5A /// KIR2DL5B /// KIR2DS1 /// KIR2DS2 /// KIR2DS3 /// KIR2DS4 /// KIR3DL3 /// KIR3DL3 /// KIR3DS1 (11738374_at) / RFU C1QL1 (11718748_at) / Fold change /veh C1QL1 (11718748_at) / RFU TMPRSS4 (11747572_a_at) / Fold change /veh TMPRSS4 (11747572_a_at) / RFU HAMP (11756126_x_at) / Fold change /veh HAMP (11756126_x_at) / RFU RNFT2 (11725882_a_at) / Fold change /veh RNFT2 (11725882_a_at) / RFU NR4A2 (11747474_a_at) / Fold change /veh NR4A2 (11747474_a_at) / RFU ABCC12 (11746883_a_at) / Fold change /veh ABCC12 (11746883_a_at) / RFU TMEM136 (11760407_x_at) / Fold change /veh TMEM136 (11760407_x_at) / RFU CLDN22 /// WWC2 (11732394_at) / Fold change /veh CLDN22 /// WWC2 (11732394_at) / RFU HLA-DPB1 (11760878_x_at) / Fold change /veh HLA-DPB1 (11760878_x_at) / RFU SPINT1 (11716480_a_at) / Fold change /veh SPINT1 (11716480_a_at) / RFU GAP43 (11754022_s_at) / Fold change /veh GAP43 (11754022_s_at) / RFU A4GNT (11735810_at) / Fold change /veh A4GNT (11735810_at) / RFU PRB3 (11715151_x_at) / Fold change /veh PRB3 (11715151_x_at) / RFU TUBB4B (11761932_at) / Fold change /veh TUBB4B (11761932_at) / RFU CAPN14 (11732068_a_at) / Fold change /veh CAPN14 (11732068_a_at) / RFU TMCC2 (11721928_a_at) / Fold change /veh TMCC2 (11721928_a_at) / RFU IRGQ (11745062_a_at) / Fold change /veh IRGQ (11745062_a_at) / RFU FAM174B (11720279_a_at) / Fold change /veh FAM174B (11720279_a_at) / RFU TMPRSS4 (11748680_a_at) / Fold change /veh TMPRSS4 (11748680_a_at) / RFU FAM212B (11763350_a_at) / Fold change /veh FAM212B (11763350_a_at) / RFU PLEKHG5 (11743358_a_at) / Fold change /veh PLEKHG5 (11743358_a_at) / RFU ZSCAN30 (11745921_a_at) / Fold change /veh ZSCAN30 (11745921_a_at) / RFU CMKLR1 (11741424_a_at) / Fold change /veh CMKLR1 (11741424_a_at) / RFU LOC101060620 /// MAPK8IP1 (11723275_at) / Fold change /veh LOC101060620 /// MAPK8IP1 (11723275_at) / RFU SPTSSB (11747773_x_at) / Fold change /veh SPTSSB (11747773_x_at) / RFU PRSS12 (11739890_at) / Fold change /veh PRSS12 (11739890_at) / RFU BIN1 (11741810_x_at) / Fold change /veh BIN1 (11741810_x_at) / RFU WNT11 (11732464_a_at) / Fold change /veh WNT11 (11732464_a_at) / RFU C10orf10 (11716521_a_at) / Fold change /veh C10orf10 (11716521_a_at) / RFU C5orf56 (11738089_at) / Fold change /veh C5orf56 (11738089_at) / RFU CYB561 (11721691_x_at) / Fold change /veh CYB561 (11721691_x_at) / RFU ANKRD19P (11752326_a_at) / Fold change /veh ANKRD19P (11752326_a_at) / RFU OR2T12 /// OR2T33 /// OR2T8 (11738714_s_at) / Fold change /veh OR2T12 /// OR2T33 /// OR2T8 (11738714_s_at) / RFU VCAN (11748164_a_at) / Fold change /veh VCAN (11748164_a_at) / RFU JSRP1 (11732532_at) / Fold change /veh JSRP1 (11732532_at) / RFU KRTAP10-11 (11738290_x_at) / Fold change /veh KRTAP10-11 (11738290_x_at) / RFU MYO3A (11730013_a_at) / Fold change /veh MYO3A (11730013_a_at) / RFU EBF3 (11725865_a_at) / Fold change /veh EBF3 (11725865_a_at) / RFU CAMK2N1 (11719241_x_at) / Fold change /veh CAMK2N1 (11719241_x_at) / RFU C5orf56 (11738088_a_at) / Fold change /veh C5orf56 (11738088_a_at) / RFU OLFML3 (11715873_a_at) / Fold change /veh OLFML3 (11715873_a_at) / RFU LOC100653217 /// NTM (11731650_a_at) / Fold change /veh LOC100653217 /// NTM (11731650_a_at) / RFU MAPK11 (11762145_a_at) / Fold change /veh MAPK11 (11762145_a_at) / RFU FIZ1 (11724087_x_at) / Fold change /veh FIZ1 (11724087_x_at) / RFU OASL (11726364_x_at) / Fold change /veh OASL (11726364_x_at) / RFU SOX15 (11748057_x_at) / Fold change /veh SOX15 (11748057_x_at) / RFU CD79A (11719716_a_at) / Fold change /veh CD79A (11719716_a_at) / RFU HIST1H1D (11736915_at) / Fold change /veh HIST1H1D (11736915_at) / RFU CASKIN2 (11723855_a_at) / Fold change /veh CASKIN2 (11723855_a_at) / RFU LOC730098 (11760151_x_at) / Fold change /veh LOC730098 (11760151_x_at) / RFU OR4N2 (11742367_at) / Fold change /veh OR4N2 (11742367_at) / RFU PRRT2 (11749266_a_at) / Fold change /veh PRRT2 (11749266_a_at) / RFU SNX32 (11753110_a_at) / Fold change /veh SNX32 (11753110_a_at) / RFU CDHR5 (11726645_a_at) / Fold change /veh CDHR5 (11726645_a_at) / RFU RCAN1 (11760418_a_at) / Fold change /veh RCAN1 (11760418_a_at) / RFU FAM167A (11723789_a_at) / Fold change /veh FAM167A (11723789_a_at) / RFU FAM26E (11764081_at) / Fold change /veh FAM26E (11764081_at) / RFU ISYNA1 (11749810_s_at) / Fold change /veh ISYNA1 (11749810_s_at) / RFU ACY1 (11761880_at) / Fold change /veh ACY1 (11761880_at) / RFU 11764098_at / Fold change /veh 11764098_at / RFU SAMD14 (11745864_x_at) / Fold change /veh SAMD14 (11745864_x_at) / RFU NPB (11741838_a_at) / Fold change /veh NPB (11741838_a_at) / RFU TMPRSS6 (11731388_a_at) / Fold change /veh TMPRSS6 (11731388_a_at) / RFU KRTAP10-2 (11738614_at) / Fold change /veh KRTAP10-2 (11738614_at) / RFU ARHGAP8 /// PRR5-ARHGAP8 (11727945_x_at) / Fold change /veh ARHGAP8 /// PRR5-ARHGAP8 (11727945_x_at) / RFU KRTAP5-7 /// NADSYN1 (11734609_at) / Fold change /veh KRTAP5-7 /// NADSYN1 (11734609_at) / RFU RASL12 (11751679_a_at) / Fold change /veh RASL12 (11751679_a_at) / RFU CDKN2B (11736163_a_at) / Fold change /veh CDKN2B (11736163_a_at) / RFU PRF1 (11729649_at) / Fold change /veh PRF1 (11729649_at) / RFU, ZNF638 /// ZNF638-IT1 / Fold change vs veh, ZNF638 /// ZNF638-IT1 / RFU, PANK3 / Fold change vs veh, PANK3 / RFU, SH3YL1 / Fold change vs veh, SH3YL1 / RFU, ZEB2 / Fold change vs veh, ZEB2 / RFU, NRIP1 / Fold change vs veh, NRIP1 / RFU, PTTG1IP / Fold change vs veh, PTTG1IP / RFU, CAPN2 / Fold change vs veh, CAPN2 / RFU, MED14 / Fold change vs veh, MED14 / RFU, SNORA58 / Fold change vs veh, SNORA58 / RFU, C1orf63 / Fold change vs veh, C1orf63 / RFU, LRRFIP1 / Fold change vs veh, LRRFIP1 / RFU, NDUFAF7 / Fold change vs veh, NDUFAF7 / RFU, SLC12A2 / Fold change vs veh, SLC12A2 / RFU, IBTK / Fold change vs veh, IBTK / RFU, ESF1 / Fold change vs veh, ESF1 / Fold change vs veh, TMEM50B / RFU, TAOK1 / Fold change vs veh, TAOK1 / RFU, ACBD3 / Fold change vs veh, ACBD3 / RFU, TMA16 / Fold change vs veh, TMA16 / RFU, RWDD3 / Fold change vs veh, RWDD3 / RFU, BCAT1 / Fold change vs veh, BCAT1 / RFU, EDEM3 / Fold change vs veh, EDEM3 / RFU, TMEM33 / Fold change vs veh, TMEM33 / RFU, WDR75 / Fold change vs veh, WDR75 / RFU, AHCTF1 / Fold change vs veh, AHCTF1 / RFU, TFRC / Fold change vs veh, TFRC / RFU, ZDHHC17 / Fold change vs veh, ZDHHC17 / RFU, NOM1 / Fold change vs veh, NOM1 / RFU, ARL8B / Fold change vs veh, ARL8B / RFU, ZBTB11 / Fold change vs veh, ZBTB11 / RFU, TAMM41 / Fold change vs veh, TAMM41 / RFU, KIAA1704 /// LOC100996395 / Fold change vs veh, KIAA1704 /// LOC100996395 / RFU, ING1 / Fold change vs veh, ING1 / RFU, TRMT61B / Fold change vs veh, TRMT61B / RFU, FUBP3 / Fold change vs veh, FUBP3 / RFU, TP53 / Fold change vs veh, TP53 / RFU, TNKS2 / Fold change vs veh, TNKS2 / RFU, ZFP14 / Fold change vs veh, ZFP14 / RFU, ACTR2 / Fold change vs veh, ACTR2 / RFU, PPP3R1 / Fold change vs veh, PPP3R1 / RFU, PIK3R1 / Fold change vs veh, PIK3R1 / RFU, HNRNPA1 / Fold change vs veh, HNRNPA1 / RFU, RNF170 / Fold change vs veh, RNF170 / RFU, ZNF28 / Fold change vs veh, ZNF28 / RFU, RNGTT / Fold change vs veh, RNGTT / RFU, OGT / Fold change vs veh, OGT / RFU, BRD1 / Fold change vs veh, BRD1 / RFU, MARS / Fold change vs veh, MARS / RFU, ZNF655 / Fold change vs veh, ZNF655 / RFU, FAHD1 / Fold change vs veh, FAHD1 / RFU, BDP1 / Fold change vs veh, BDP1 / RFU, LRRCC1 / Fold change vs veh, LRRCC1 / RFU, ARID1A / Fold change vs veh, ARID1A / RFU, ZNF146 / Fold change vs veh, ZNF146 / RFU, ZNF330 / Fold change vs veh, ZNF330 / RFU, GPN3 / Fold change vs veh, GPN3 / RFU, C9orf123 / Fold change vs veh, C9orf123 / RFU, N4BP2L2 / Fold change vs veh, N4BP2L2 / RFU, ARFIP1 / Fold change vs veh, ARFIP1 / RFU, FAM179B / Fold change vs veh, FAM179B / RFU, BCL10 / Fold change vs veh, BCL10 / RFU, UHRF1BP1L / Fold change vs veh, UHRF1BP1L / RFU, BET1 / Fold change vs veh, BET1 / RFU, CNOT2 / Fold change vs veh, CNOT2 / RFU, ZNF268 / Fold change vs veh, ZNF268 / Fold change vs veh, ZNF507 / RFU, DGCR2 / Fold change vs veh, DGCR2 / RFU, WDSUB1 / Fold change vs veh, WDSUB1 / Fold change vs veh, HSP90B1 /// MIR3652 / RFU, ADSS / Fold change vs veh, ADSS / RFU, GK / Fold change vs veh, GK / RFU, ZNF148 / Fold change vs veh, ZNF148 / RFU, TAF9 / Fold change vs veh, TAF9 / RFU, SLC1A5 / Fold change vs veh, SLC1A5 / RFU, SLMO2 / Fold change vs veh, SLMO2 / RFU, ABCC4 / Fold change vs veh, ABCC4 / RFU, LOC101060439 /// RAP1B / Fold change vs veh, LOC101060439 /// RAP1B / RFU, RFX7 / Fold change vs veh, RFX7 / RFU, GTPBP10 / Fold change vs veh, GTPBP10 / RFU, CNEP1R1 / Fold change vs veh, CNEP1R1 / RFU, BIVM-ERCC5 /// ERCC5 / Fold change vs veh, BIVM-ERCC5 /// ERCC5 / RFU, ILF3 / Fold change vs veh, ILF3 / RFU 11762660_at / Fold change /veh 11762660_at / RFU VCAN (11757783_s_at) / Fold change /veh VCAN (11757783_s_at) / RFU DDX43 (11728927_at) / Fold change /veh DDX43 (11728927_at) / RFU KRT8 (11758188_x_at) / Fold change /veh KRT8 (11758188_x_at) / RFU NKD1 (11759106_at) / Fold change /veh NKD1 (11759106_at) / RFU SRD5A1 (11742802_a_at) / Fold change /veh SRD5A1 (11742802_a_at) / RFU TPSAB1 /// TPSB2 (11721975_s_at) / Fold change /veh TPSAB1 /// TPSB2 (11721975_s_at) / RFU GSTM3 (11746129_a_at) / Fold change /veh GSTM3 (11746129_a_at) / RFU IL23R (11737362_x_at) / Fold change /veh IL23R (11737362_x_at) / RFU TMEM51 (11727254_a_at) / Fold change /veh TMEM51 (11727254_a_at) / RFU PIWIL2 (11732686_x_at) / Fold change /veh PIWIL2 (11732686_x_at) / RFU ORM1 (11744905_x_at) / Fold change /veh ORM1 (11744905_x_at) / RFU CCDC152 (11743942_at) / Fold change /veh CCDC152 (11743942_at) / RFU ECM1 (11717891_a_at) / Fold change /veh ECM1 (11717891_a_at) / RFU IL23R (11748794_a_at) / Fold change /veh IL23R (11748794_a_at) / RFU TNFAIP8L3 (11732012_x_at) / Fold change /veh TNFAIP8L3 (11732012_x_at) / RFU MBOAT4 (11741988_at) / Fold change /veh MBOAT4 (11741988_at) / RFU 11764193_at / Fold change /veh 11764193_at / RFU TMEM53 (11763286_at) / Fold change /veh TMEM53 (11763286_at) / RFU MAGEB2 (11727129_at) / Fold change /veh MAGEB2 (11727129_at) / RFU TMEM200A (11744735_a_at) / Fold change /veh TMEM200A (11744735_a_at) / RFU CCDC152 (11751479_a_at) / Fold change /veh CCDC152 (11751479_a_at) / RFU FAM211A (11726209_a_at) / Fold change /veh FAM211A (11726209_a_at) / RFU RGS16 (11746705_a_at) / Fold change /veh RGS16 (11746705_a_at) / RFU VCAN (11755009_s_at) / Fold change /veh VCAN (11755009_s_at) / RFU RHOB (11743442_s_at) / Fold change /veh RHOB (11743442_s_at) / RFU RGS16 (11720943_a_at) / Fold change /veh RGS16 (11720943_a_at) / RFU RGS16 (11720944_at) / Fold change /veh RGS16 (11720944_at) / RFU, VPS4B / Fold change vs veh, VPS4B / RFU, CREB1 / Fold change vs veh, CREB1 / RFU, DNAJC13 / Fold change vs veh, DNAJC13 / RFU, GNAQ / Fold change vs veh, GNAQ / RFU, CDK5R1 / Fold change vs veh, CDK5R1 / RFU, ZRANB3 / Fold change vs veh, ZRANB3 / RFU, CUL4A / Fold change vs veh, CUL4A / RFU, CCNY / Fold change vs veh, CCNY / RFU, UFL1 / Fold change vs veh, UFL1 / RFU, COG3 / Fold change vs veh, COG3 / RFU, DIAPH2 / Fold change vs veh, DIAPH2 / RFU, SKA2 / Fold change vs veh, SKA2 / RFU, AFF3 / Fold change vs veh, AFF3 / RFU, LMF1 / Fold change vs veh, LMF1 / RFU, IPO11 / Fold change vs veh, IPO11 / RFU, DFFB / Fold change vs veh, DFFB / RFU, FOXP1 / Fold change vs veh, FOXP1 / RFU, CARD8 / Fold change vs veh, CARD8 / RFU, STRN3 / Fold change vs veh, STRN3 / RFU, ADK / Fold change vs veh, ADK / RFU, RASSF2 / Fold change vs veh, RASSF2 / RFU, WIPF1 / Fold change vs veh, WIPF1 / RFU, LARP1B / Fold change vs veh, LARP1B / RFU, RASA1 / Fold change vs veh, RASA1 / RFU, RB1 / Fold change vs veh, RB1 / RFU, PPFIA1 / Fold change vs veh, PPFIA1 / RFU, MAT2A / Fold change vs veh, MAT2A / RFU, CCT5 / Fold change vs veh, CCT5 / RFU, WDR92 / Fold change vs veh, WDR92 / RFU, CUX1 / Fold change vs veh, CUX1 / RFU, TTC7A / Fold change vs veh, TTC7A / RFU, TMEM135 / Fold change vs veh, TMEM135 / RFU, DEPTOR / Fold change vs veh, DEPTOR / RFU, CPM / Fold change vs veh, CPM / RFU, DNAJB6 / Fold change vs veh, DNAJB6 / RFU, CACNA2D3 / Fold change vs veh, CACNA2D3 / RFU, DTX4 / Fold change vs veh, DTX4 / RFU, TFCP2 / Fold change vs veh, TFCP2 / RFU, GMCL1 /// GMCL1P1 / Fold change vs veh, GMCL1 /// GMCL1P1 / RFU, AEBP2 / Fold change vs veh, AEBP2 / RFU, SNHG1 /// SNORD22 /// SNORD25 /// SNORD26 /// SNORD27 /// SNORD28 /// SNORD29 /// SNORD31 / Fold change vs veh, SNHG1 /// SNORD22 /// SNORD25 /// SNORD26 /// SNORD27 /// SNORD28 /// SNORD29 /// SNORD31 / Fold change (Aza/veh), C12orf56 (ProbeSet 11735607_a_at) / Fold change (ACY-1035/veh), C12orf56 (ProbeSet 11735607_a_at) / Fold change (Aza/veh), FGFR1OP (ProbeSet 11751329_s_at) / Fold change (ACY-1035/veh), FGFR1OP (ProbeSet 11751329_s_at) / Fold change (Aza/veh), VPS36 (ProbeSet 11739960_a_at) / Fold change (ACY-1035/veh), VPS36 (ProbeSet 11739960_a_at) / RFU SYPL1 (11715823_x_at) / Fold change /veh SYPL1 (11715823_x_at) / RFU IGFBP7 (11715501_s_at) / Fold change /veh IGFBP7 (11715501_s_at) / RFU REEP3 (11722064_at) / Fold change /veh REEP3 (11722064_at) / RFU IGLL1 (11728026_x_at) / Fold change /veh IGLL1 (11728026_x_at): dose or concentration left out as unconfirmed
# Conditions: ProbeSet 11738335_x_at; LIST B
smiles,measurement,value
Nc1ccc(-c2cccs2)cc1NC(=O)c1ccc2c(c1)cc(C1CC1)n2CCN1CCOCC1 [ACY-1035],"Fold change vs veh, TP53",0.84
